Assay results: patent US20050222258A1, “Pharmaceuticals comprising shikonins as active constituent” (priority 2003, published 2005)

Key:
HBsAg = assay: microbe, parasite or virus in culture; settings: Hepatitis B virus, read-out: average inhibitory rate for HBsAg
HBeAg = assay: microbe, parasite or virus in culture; settings: Hepatitis B virus, read-out: average inhibitory rate for HBeAg

What does the source list for CC(C)=CCC(OC(=O)C=C(C)C)C1=CC(=O)c2c(O)ccc(O)c2C1=O (stereo not drawn) [β,β-dimethylacrylshikonin]?
inhibition at 30 µg/mL (HBsAg): 96.3%; inhibition at 30 µg/mL (HBeAg): 91.6%
